# Columns and labels:
# barnyard grass [1] = assay: Test Example 5: herbicidal effect by foliage application, plastic box (Table 20, symbol H); format: in vivo, barnyard grass (Echinochloa crus-galli); settings: foliage application
# Outline: (§1)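 Plants sown in sterilized diluvial soil and grown 14 days in a greenhouse at 25° C to 30° C, then sprayed on the foliage with the compound's emulsion diluted in water to a predetermined herbicide amount. Injury to weeds and crops scored three weeks after application on a visual rating scale.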
# blackgrass [2] = assay: Test Example 5: herbicidal effect by foliage application, plastic box (Table 20, symbol J); format: in vivo, blackgrass (Alopecurus myosuroides); settings: foliage application
# Outline: as §1
# Italian ryegrass [3] = assay: Test Example 4: herbicidal effect by soil treatment (Table 19, symbol K); format: in vivo, Italian ryegrass (Lolium multiflorum)
# Outline: (§2)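 Seeds were sown in sterilized diluvial soil and covered with about 1.5 cm of soil. An emulsion formulation diluted with water to a predetermined herbicide amount was sprayed evenly onto the soil surface. Plants grew in a greenhouse at 25° C. to 30° C., and the effect was scored three weeks after application using criteria from an earlier test.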
# barnyard grass [4] = assay: Test Example 4: herbicidal effect by soil treatment (Table 19, symbol H); format: in vivo, barnyard grass (Echinochloa crus-galli)
# Outline: as §2
# windgrass [5] = assay: Test Example 4: herbicidal effect by soil treatment (Table 19, symbol L); format: in vivo, windgrass (Apera spica-venti)
# Outline: as §2
# lambsquarters [6] = assay: Test Example 5: herbicidal effect by foliage application, plastic box (Table 20, symbol O); format: in vivo, lambsquarters (Chenopodium album); settings: foliage application
# Outline: as §1
# wild oat [7] = assay: Test Example 4: herbicidal effect by soil treatment (Table 19, symbol I); format: in vivo, wild oat (Avena fatua)
# Outline: as §2
# velvetleaf [8] = assay: Test Example 4: herbicidal effect by soil treatment (Table 19, symbol M); format: in vivo, velvetleaf (Abutilon theophrasti)
# Outline: as §2
# wild oat [9] = assay: Test Example 5: herbicidal effect by foliage application, plastic box (Table 20, symbol I); format: in vivo, wild oat (Avena fatua); settings: foliage application
# Outline: as §1
# persian speedwell [10] = assay: Test Example 5: herbicidal effect by foliage application, plastic box (Table 20, symbol R); format: in vivo, Persian speedwell (Veronica persica); settings: foliage application
# Outline: as §1
# Chinese sprangletop = assay: Test Example 3: herbicidal effect by foliage application, Wagner pot (Table 18, symbol D); format: in vivo, chinese sprangletop (Leptochloa chinensis)
# Outline: (§3)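 Plants were sown in alluvial soil held under 0.1–0.5 cm standing water and grown 14 days in a greenhouse at 25–30 °C. An emulsifiable formulation, water-diluted to the set dose, was then sprayed onto the foliage, and effects were scored three weeks later using previously defined criteria.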
# velvetleaf [11] = assay: Test Example 5: herbicidal effect by foliage application, plastic box (Table 20, symbol M); format: in vivo, velvetleaf (Abutilon theophrasti); settings: foliage application
# Outline: as §1
# chickweed [12] = assay: Test Example 4: herbicidal effect by soil treatment (Table 19, symbol P); format: in vivo, common chickweed (Stellaria media)
# Outline: as §2
# redroot pigweed [13] = assay: Test Example 5: herbicidal effect by foliage application, plastic box (Table 20, symbol N); format: in vivo, redroot pigweed (Amaranthus retroflexus); settings: foliage application
# Outline: as §1
# southern crabgrass [14] = assay: Test Example 4: herbicidal effect by soil treatment (Table 19, symbol F); format: in vivo, southern crabgrass (Digitaria ciliaris)
# Outline: as §2
# southern crabgrass [15] = assay: Test Example 5: herbicidal effect by foliage application, plastic box (Table 20, symbol F); format: in vivo, southern crabgrass (Digitaria ciliaris); settings: foliage application
# Outline: as §1
# redroot pigweed [16] = assay: Test Example 4: herbicidal effect by soil treatment (Table 19, symbol N); format: in vivo, redroot pigweed (Amaranthus retroflexus)
# Outline: as §2
# Italian ryegrass [17] = assay: Test Example 5: herbicidal effect by foliage application, plastic box (Table 20, symbol K); format: in vivo, Italian ryegrass (Lolium multiflorum); settings: foliage application
# Outline: as §1
# lambsquarters [18] = assay: Test Example 4: herbicidal effect by soil treatment (Table 19, symbol O); format: in vivo, lambsquarters (Chenopodium album)
# Outline: as §2
# barnyard grass [19] = assay: Test Example 3: herbicidal effect by foliage application, Wagner pot (Table 18, symbol H); format: in vivo, barnyard grass (Echinochloa crus-galli)
# Outline: as §3
# green foxtail [20] = assay: Test Example 5: herbicidal effect by foliage application, plastic box (Table 20, symbol G); format: in vivo, green foxtail (Setaria viridis); settings: foliage application
# Outline: as §1
# rice flat sedge = assay: Test Example 3: herbicidal effect by foliage application, Wagner pot (Table 18, symbol E); format: in vivo, rice flat sedge (Cyperus iria)
# Outline: as §3
# windgrass [21] = assay: Test Example 5: herbicidal effect by foliage application, plastic box (Table 20, symbol L); format: in vivo, windgrass (Apera spica-venti); settings: foliage application
# Outline: as §1
# green foxtail [22] = assay: Test Example 4: herbicidal effect by soil treatment (Table 19, symbol G); format: in vivo, green foxtail (Setaria viridis)
# Outline: as §2
# persian speedwell [23] = assay: Test Example 4: herbicidal effect by soil treatment (Table 19, symbol R); format: in vivo, Persian speedwell (Veronica persica)
# Outline: as §2
# blackgrass [24] = assay: Test Example 4: herbicidal effect by soil treatment (Table 19, symbol J); format: in vivo, blackgrass (Alopecurus myosuroides)
# Outline: as §2
# chickweed [25] = assay: Test Example 5: herbicidal effect by foliage application, plastic box (Table 20, symbol P); format: in vivo, common chickweed (Stellaria media); settings: foliage application
# Outline: as §1
# [26] = AAH 80 g/ha, three weeks after application
# [27] = 320 g/ha, evaluated three weeks after application
structure (smiles),measurement,setting,value
COc1nn(C)c(=O)c(-c2c(-c3ccc(OC(F)(F)F)cc3)sc3ccccc23)c1O [1-162],"H: barnyard grass, herbicidal effect",barnyard grass [1]; [26],0 (Herbicidal rate of 5% or less (almost no effect))
same,"J: blackgrass, herbicidal effect",blackgrass [2]; [26],0 (Herbicidal rate of 5% or less (almost no effect))
same,"K: Italian ryegrass, herbicidal effect rating",Italian ryegrass [3]; AAH 80 g/ha,0 (Herbicidal rate of 5% or less (almost no effect))
same,"H: barnyard grass, herbicidal effect rating",barnyard grass [4]; AAH 80 g/ha,0 (Herbicidal rate of 5% or less (almost no effect))
same,"L: windgrass, herbicidal effect rating",windgrass [5]; AAH 80 g/ha,0 (Herbicidal rate of 5% or less (almost no effect))
same,"O: lambsquarters, herbicidal effect",lambsquarters [6]; [26],3 (Herbicidal rate of 40% or more and less than 70%)
same,"I: wild oat, herbicidal effect rating",wild oat [7]; AAH 80 g/ha,0 (Herbicidal rate of 5% or less (almost no effect))
same,"M: velvetleaf, herbicidal effect rating",velvetleaf [8]; AAH 80 g/ha,0 (Herbicidal rate of 5% or less (almost no effect))
same,"I: wild oat, herbicidal effect",wild oat [9]; [26],0 (Herbicidal rate of 5% or less (almost no effect))
same,"R: persian speedwell, herbicidal effect",persian speedwell [10]; [26],5 (Herbicidal rate of 90% or more (almost completely withered))
same,"herbicidal effect on D (Chinese sprangletop), rating 0-5",Chinese sprangletop; 80 g/ha,3 (Herbicidal rate of 40% or more and less than 70%)
same,"M: velvetleaf, herbicidal effect",velvetleaf [11]; [26],3 (Herbicidal rate of 40% or more and less than 70%)
same,"P: chickweed, herbicidal effect rating",chickweed [12]; AAH 80 g/ha,2 (Herbicidal rate of 20% or more and less than 40%)
same,"N: redroot pigweed, herbicidal effect",redroot pigweed [13]; [26],4 (Herbicidal rate of 70% or more and less than 90%)
same,"F: southern crabgrass, herbicidal effect rating",southern crabgrass [14]; AAH 80 g/ha,0 (Herbicidal rate of 5% or less (almost no effect))
same,"F: southern crabgrass, herbicidal effect",southern crabgrass [15]; [26],0 (Herbicidal rate of 5% or less (almost no effect))
same,"N: redroot pigweed, herbicidal effect rating",redroot pigweed [16]; AAH 80 g/ha,1 (Herbicidal rate of 5% or more and less than 20%)
same,"K: Italian ryegrass, herbicidal effect",Italian ryegrass [17]; [26],0 (Herbicidal rate of 5% or less (almost no effect))
same,"O: lambsquarters, herbicidal effect rating",lambsquarters [18]; AAH 80 g/ha,4 (Herbicidal rate of 70% or more and less than 90%)
same,"herbicidal effect on H (barnyard grass), rating 0-5",barnyard grass [19]; 80 g/ha,4 (Herbicidal rate of 70% or more and less than 90%)
same,"G: green foxtail, herbicidal effect",green foxtail [20]; [26],0 (Herbicidal rate of 5% or less (almost no effect))
same,"herbicidal effect on E (rice flat sedge), rating 0-5",rice flat sedge; 80 g/ha,5 (Herbicidal rate of 90% or more (almost completely withered))
same,"L: windgrass, herbicidal effect",windgrass [21]; [26],0 (Herbicidal rate of 5% or less (almost no effect))
same,"G: green foxtail, herbicidal effect rating",green foxtail [22]; AAH 80 g/ha,0 (Herbicidal rate of 5% or less (almost no effect))
same,"R: persian speedwell, herbicidal effect rating",persian speedwell [23]; AAH 80 g/ha,0 (Herbicidal rate of 5% or less (almost no effect))
same,"J: blackgrass, herbicidal effect rating",blackgrass [24]; AAH 80 g/ha,0 (Herbicidal rate of 5% or less (almost no effect))
same,"P: chickweed, herbicidal effect",chickweed [25]; [26],5 (Herbicidal rate of 90% or more (almost completely withered))
Cc1nn(C)c(=O)c(-c2c(-c3ccc(Cl)cc3)sc3ccc(Cl)cc23)c1O [2-099],herbicidal effect on H: barnyard grass,barnyard grass [1]; [27],5 (Herbicidal rate of 90% or more (almost completely withered))
same,herbicidal effect on J: blackgrass,blackgrass [2]; [27],4 (Herbicidal rate of 70% or more and less than 90%)
same,"herbicidal effect rating, K: Italian ryegrass",Italian ryegrass [3]; 320 g/ha,5 (Herbicidal rate of 90% or more (almost completely withered))
same,"herbicidal effect rating, H: barnyard grass",barnyard grass [4]; 320 g/ha,0 (Herbicidal rate of 5% or less (almost no effect))
same,"herbicidal effect rating, L: windgrass",windgrass [5]; 320 g/ha,4 (Herbicidal rate of 70% or more and less than 90%)
same,herbicidal effect on O: lambsquarters,lambsquarters [6]; [27],5 (Herbicidal rate of 90% or more (almost completely withered))
same,"herbicidal effect rating, I: wild oat",wild oat [7]; 320 g/ha,0 (Herbicidal rate of 5% or less (almost no effect))
same,"herbicidal effect rating, M: velvetleaf",velvetleaf [8]; 320 g/ha,0 (Herbicidal rate of 5% or less (almost no effect))
same,herbicidal effect on I: wild oat,wild oat [9]; [27],5 (Herbicidal rate of 90% or more (almost completely withered))
same,herbicidal effect on R: persian speedwell,persian speedwell [10]; [27],5 (Herbicidal rate of 90% or more (almost completely withered))
same,"herbicidal effect on D (Chinese sprangletop), rating 0-5",Chinese sprangletop; 320 g/ha,4 (Herbicidal rate of 70% or more and less than 90%)
same,herbicidal effect on M: velvetleaf,velvetleaf [11]; [27],5 (Herbicidal rate of 90% or more (almost completely withered))
same,"herbicidal effect rating, P: chickweed",chickweed [12]; 320 g/ha,4 (Herbicidal rate of 70% or more and less than 90%)
same,herbicidal effect on N: redroot pigweed,redroot pigweed [13]; [27],5 (Herbicidal rate of 90% or more (almost completely withered))
same,"herbicidal effect rating, F: southern crabgrass",southern crabgrass [14]; 320 g/ha,0 (Herbicidal rate of 5% or less (almost no effect))
same,herbicidal effect on F: southern crabgrass,southern crabgrass [15]; [27],5 (Herbicidal rate of 90% or more (almost completely withered))
same,"herbicidal effect rating, N: redroot pigweed",redroot pigweed [16]; 320 g/ha,3 (Herbicidal rate of 40% or more and less than 70%)
same,herbicidal effect on K: Italian ryegrass,Italian ryegrass [17]; [27],5 (Herbicidal rate of 90% or more (almost completely withered))
same,"herbicidal effect rating, O: lambsquarters",lambsquarters [18]; 320 g/ha,3 (Herbicidal rate of 40% or more and less than 70%)
same,"herbicidal effect on H (barnyard grass), rating 0-5",barnyard grass [19]; 320 g/ha,5 (Herbicidal rate of 90% or more (almost completely withered))
same,herbicidal effect on G: green foxtail,green foxtail [20]; [27],5 (Herbicidal rate of 90% or more (almost completely withered))
same,"herbicidal effect on E (rice flat sedge), rating 0-5",rice flat sedge; 320 g/ha,5 (Herbicidal rate of 90% or more (almost completely withered))
same,herbicidal effect on L: windgrass,windgrass [21]; [27],5 (Herbicidal rate of 90% or more (almost completely withered))
same,"herbicidal effect rating, G: green foxtail",green foxtail [22]; 320 g/ha,2 (Herbicidal rate of 20% or more and less than 40%)
same,"herbicidal effect rating, R: persian speedwell",persian speedwell [23]; 320 g/ha,1 (Herbicidal rate of 5% or more and less than 20%)
same,"herbicidal effect rating, J: blackgrass",blackgrass [24]; 320 g/ha,2 (Herbicidal rate of 20% or more and less than 40%)
same,herbicidal effect on P: chickweed,chickweed [25]; [27],5 (Herbicidal rate of 90% or more (almost completely withered))

# From US20230085307A1, “PYRIDAZINONE COMPOUND AND HERBICIDE” (NISSAN CHEMICAL CORPORATION, priority 2019, published 2023)
